The results in this text go back to ChEMBL document CHEMBL5352410, “Discovery of novel selenium-containing azole derivatives as antifungal agents by exploiting the hydrophobic cleft of CYP51” (Eur J Med Chem, 2022).

The test system of series [1] is Candida albicans. Kind of series: Antibiofilm activity against Candida albicans CPCC400616 assessed as sessile minimum inhibitory concentration measured after 3 hrs by XTT assay. In kind it is functional. For orientation: Formazan colour is commonly taken as a measure of viable cells.
Another series relates to Nakaseomyces glabratus. The experiment in a line: Antifungal activity against Candida glabrata by CLSI based broth microdilution method. It counts as functional.
Series [2] deals with Candida albicans. Kind of series: Antifungal activity against FCZ-resistant Candida albicans 632 by CLSI based broth microdilution method. It counts as functional. (Dilution methods test growth across graded concentrations, often in twofold steps.)
Series [3] concerns Candida albicans. The experiment in a line: Fungicidal activity against FCZ-resistant Candida albicans 901. In kind it is functional.
For series [4], the system named is Candida albicans. The experiment in a line: Fungicidal activity against FCZ-resistant Candida albicans 17#. In kind it is functional.
In series [5] the test system is Candida albicans. The experiment in a line: Antibiofilm activity against Candida albicans CPCC400616 assessed as sessile minimum inhibitory concentration measured after 24 hrs by XTT assay. In kind it is functional.
For series [6], the system named is Candida albicans. Kind of series: Antibiofilm activity against Candida albicans CPCC400616 assessed as sessile minimum inhibitory concentration measured after 6 hrs by XTT assay. It counts as functional.
Series [7] can be described thus: Cytotoxicity against human HL-60 cells by MTT assay. In kind it is toxicity, cell-based.
The subject of series [8] is Candida albicans. Kind of series: Antifungal activity against FCZ-resistant Candida albicans 901 by CLSI based broth microdilution method. It counts as functional.
In series [9] the test system is Candida albicans. Kind of series: Antifungal activity against FCZ-resistant Candida albicans CaR by CLSI based broth microdilution method. In kind it is functional.
The next series has as its system Aspergillus fumigatus. The experiment in a line: Antifungal activity against Aspergillus fumigatus by CLSI based broth microdilution method. In kind it is functional.
Another series has as its system Pichia kudriavzevii. Kind of series: Antifungal activity against Pichia kudriavzevii by CLSI based broth microdilution method. It counts as functional.
The subject of series [10] is Candida albicans. Kind of series: Fungicidal activity against FCZ-resistant Candida albicans CaR. In kind it is functional.
Series [11] concerns Candida albicans. The experiment in a line: Fungicidal activity against Candida albicans sc5314. In kind it is functional.
Series [12] can be described thus: Cytotoxicity against human MDA-MB-231 cells by MTT assay. It counts as toxicity, cell-based.
Series [13] relates to Candida albicans. The experiment in a line: Antifungal activity against FCZ-resistant Candida albicans 904 by CLSI based broth microdilution method. In kind it is functional.
Series [14] relates to Candida albicans. The experiment in a line: Antibiofilm activity against Candida albicans SC5314 assessed as sessile minimum inhibitory concentration measured after 24 hrs by XTT assay. It counts as functional.
Series [15] relates to Candida albicans. Kind of series: Fungicidal activity against FCZ-resistant Candida albicans 632. In kind it is functional.
The subject of series [16] is Candida albicans. The experiment in a line: Antifungal activity against FCZ-resistant Candida albicans 17# by CLSI based broth microdilution method. It counts as functional.
The subject of series [17] is Candida albicans. Kind of series: Antibiofilm activity against Candida albicans SC5314 assessed as sessile minimum inhibitory concentration measured after 3 hrs by XTT assay. In kind it is functional.
Series [18] has as its system Candida albicans. The experiment in a line: Fungicidal activity against Candida albicans. It counts as functional.
A further series has as its system Candida parapsilosis. Kind of series: Antifungal activity against Candida parapsilosis by CLSI based broth microdilution method. The conditions noted are these: Lodderomyces parapsilosis. In kind it is functional.
Series [19] relates to Candida albicans. Kind of series: Antibiofilm activity against Candida albicans SC5314 assessed as sessile minimum inhibitory concentration measured after 6 hrs by XTT assay. It counts as functional.
The subject of the next series is Cryptococcus neoformans. The experiment in a line: Antifungal activity against Cryptococcus neoformans by CLSI based broth microdilution method. In kind it is functional.
The test system of series [20] is Candida albicans. Kind of series: Antibiofilm activity against Candida albicans SC5314 assessed as sessile minimum inhibitory concentration measured after 1.5 hrs by XTT assay. It counts as functional.
In series [21] the test system is Candida albicans. Kind of series: Antifungal activity against Candida albicans by CLSI based broth microdilution method. It counts as functional.
The test system of series [22] is Candida albicans. Kind of series: Antibiofilm activity against Candida albicans CPCC400616 assessed as sessile minimum inhibitory concentration measured after 1.5 hrs by XTT assay. It counts as functional.
The test system of series [23] is Candida albicans. Kind of series: Fungicidal activity against FCZ-resistant Candida albicans 904. In kind it is functional.
The subject of another series is [Candida] zeylanoides. The experiment in a line: Antifungal activity against Candida zeylanoides by CLSI based broth microdilution method. It counts as functional. Conditions: Dujonia zeylanoides.
In series [24] the test system is Candida albicans. Kind of series: Antifungal activity against Candida albicans sc5314 by CLSI based broth microdilution method. In kind it is functional.
A short description of series [25]: Cytotoxicity against human PC-3 cells by MTT assay. It counts as toxicity, cell-based.

pIC50: −log10 of the molar value. Values after ≈ are worked out from the molar mass of the structure shown.

`Cc1ccc(C(Cn2ccnc2)[Se]C(Cn2ccnc2)c2ccc(C)cc2)cc1` (stereo unspecified): the MIC50 in the series on Candida albicans [1] amounted to 2 µg/mL (≈ 4.45 µM); in the series with Candida albicans [5] it was 4 µg/mL (≈ 8.9 µM); with Candida albicans [6], 2 µg/mL (≈ 4.45 µM); in the series with Candida albicans [14], 2 µg/mL (≈ 4.45 µM); in the series on Candida albicans [17] it was 1 µg/mL (≈ 2.22 µM); in the series on Candida albicans [19], 1 µg/mL (≈ 2.22 µM). Moreover, the MIC50 with Candida albicans [20] and with Candida albicans [22] was 1 µg/mL (≈ 2.22 µM) in each case. The MIC80 with Candida albicans [1] was found to be 8 µg/mL (≈ 17.8 µM); in the series on Candida albicans [5], 16 µg/mL (≈ 35.6 µM); in the series on Candida albicans [6] it was 8 µg/mL (≈ 17.8 µM); in the series on Candida albicans [14] it was 4 µg/mL (≈ 8.9 µM); in the series with Candida albicans [17], 4 µg/mL (≈ 8.9 µM); in the series on Candida albicans [19], 4 µg/mL (≈ 8.9 µM). Further, the MIC80 in the series on Candida albicans [20] and in the series with Candida albicans [22] was 4 µg/mL (≈ 8.9 µM) throughout. In addition, the MIC (in general, the lowest concentration that inhibits growth of the organism) against Nakaseomyces glabratus is 16 µg/mL (≈ 35.6 µM); with Candida albicans [2], 4 µg/mL (≈ 8.9 µM); against Candida albicans [8], 4 µg/mL (≈ 8.9 µM); against Candida albicans [9], 2 µg/mL (≈ 4.45 µM); in the series with Aspergillus fumigatus, above 64 µg/mL; against Pichia kudriavzevii it was 16 µg/mL (≈ 35.6 µM). Moreover, the minimal inhibitory concentration (MIC) with Candida albicans [13] was determined as 4 µg/mL (≈ 8.9 µM); with Candida albicans [16], 0.5 µg/mL (≈ 1.11 µM); with Candida parapsilosis, 4 µg/mL (≈ 8.9 µM); in the series on Cryptococcus neoformans it was 32 µg/mL (≈ 71.2 µM); against Candida albicans [21], 4 µg/mL (≈ 8.9 µM); in series [Candida] zeylanoides, 2 µg/mL (≈ 4.45 µM). The compound further had an MIC in the series on Candida albicans [24] of 4 µg/mL (≈ 8.9 µM). The MFC (commonly the smallest concentration meeting the test's criterion for killing the fungus) against Candida albicans [3] was 8 µg/mL (≈ 17.8 µM); against Candida albicans [4] it was above 64 µg/mL; in the series on Candida albicans [10], above 64 µg/mL; against Candida albicans [11] it was 16 µg/mL (≈ 35.6 µM); against Candida albicans [15] it was 8 µg/mL (≈ 17.8 µM); in the series with Candida albicans [18], 64 µg/mL (≈ 142 µM). Besides, the MFC against Candida albicans [23] turned out to be 8 µg/mL (≈ 17.8 µM). The values for the pIC50 in series [7], in series [12] and in series [25] were 5.09, 5.38 and 5.95, respectively.

With `c1ccc(C(Cn2ccnc2)[Se]C(Cn2ccnc2)c2ccccc2)cc1` (stereo unspecified), the MIC was 16 µg/mL (≈ 38 µM) with Nakaseomyces glabratus; 8 µg/mL (≈ 19 µM) against Candida albicans [2]; 8 µg/mL (≈ 19 µM) against Candida albicans [8]; 4 µg/mL (≈ 9.49 µM) against Candida albicans [9]; above 64 µg/mL in the series with Aspergillus fumigatus; 16 µg/mL (≈ 38 µM) in the series on Pichia kudriavzevii. Besides, the MIC is 4 µg/mL (≈ 9.49 µM) against Candida albicans [13]; 0.5 µg/mL (≈ 1.19 µM) in the series on Candida albicans [16]; 4 µg/mL (≈ 9.49 µM) in the series on Candida parapsilosis; 64 µg/mL (≈ 152 µM) against Cryptococcus neoformans; 8 µg/mL (≈ 19 µM) in the series with Candida albicans [21]; 4 µg/mL (≈ 9.49 µM) in [Candida] zeylanoides. In addition, the MIC against Candida albicans [24] is 4 µg/mL (≈ 9.49 µM). Besides, the MFC was 16 µg/mL (≈ 38 µM) in the series on Candida albicans [3]; above 64 µg/mL against Candida albicans [4]; above 64 µg/mL against Candida albicans [10]; 8 µg/mL (≈ 19 µM) in the series on Candida albicans [11]; 16 µg/mL (≈ 38 µM) in the series with Candida albicans [15]; 64 µg/mL (≈ 152 µM) with Candida albicans [18]. This compound registered an MFC against Candida albicans [23] of 8 µg/mL (≈ 19 µM).

Turning to `COc1cccc2c1C(=O)c1c(O)c3c(c(O)c1C2=O)C[C@@](O)(C(=O)CO)C[C@@H]3O[C@H]1C[C@H](N)[C@H](O)[C@H](C)O1` [DOXORUBICIN], the pIC50 (as a rule, the IC50 on a negative log10 scale, so that one unit is a factor of ten) in series [7] was above 6.90.

The compound `CC(=O)O[C@H]1C(=O)[C@@]2(C)[C@H]([C@H](OC(=O)c3ccccc3)[C@]3(O)C[C@H](OC(=O)[C@H](O)[C@@H](NC(=O)c4ccccc4)c4ccccc4)C(C)=C1C3(C)C)[C@]1(OC(C)=O)CO[C@@H]1C[C@@H]2O` [PACLITAXEL] showed a pIC50 in [25] above 7.60.
